# In publication PMC7011973 (Journal of Enzyme Inhibition and Medicinal Chemistry, 2017):
# Legend:
# [1] = target: BsuCA1 (BsCA1); assay type: biochemical, Brucella suis; conditions: read-out: KI (nM) ^* / BsuCA1^b
# [2] = target: BsuCA2 (BsCA2); assay type: biochemical, Brucella suis; conditions: read-out: KI (nM) ^* / BsuCA2^b
SMILES,Ki [1] [nM],Ki [2] [nM]
"Cc1cc(C)n(-c2ccncc2S(N)(=O)=O)n1 [compound 13, 13]",38,780
"NS(=O)(=O)c1cnccc1N1CCC(Cc2ccccc2)CC1 [compound 12, 12]",40,–
"NS(=O)(=O)c1cnccc1N1CCN(Cc2ccc3c(c2)OCO3)CC1 [compound 11, 11]",36,336
"NS(=O)(=O)c1cnccc1N1CCN(Cc2ccccc2)CC1 [compound 10, 10]",34,97
"Cc1nn(-c2ccncc2S(N)(=O)=O)c(C)c1C [compound 14, 14]",45,–
"CCOC(=O)CCc1c(C)nn(-c2ccncc2S(N)(=O)=O)c1C [compound 16, 16]",41,706
"CCc1cc(CC)n(-c2ccncc2S(N)(=O)=O)n1 [compound 17, 17]",–,420
"CCCCc1c(C)nn(-c2ccncc2S(N)(=O)=O)c1C [compound 15, 15]",47,–
